Results on 6 compounds are retold here after ChEMBL document CHEMBL5608224, “Novel KRAS Inhibitors for Treating Non-small Cell Lung Cancer” (ACS Med Chem Lett, 2024).

As a reminder, the IC50 is the midpoint of a concentration-inhibition curve.

This experiment is described as follows: Inhibition of recombinant GMPPNP-loaded KRAS-G12C mutant (unknown origin) /recombinant GST-tagged RAF RBD (unknown origin) complex assessed as disruption preincubated with KRAS G12C for 20 mins followed by RAF addition and measured after 20 mins by HTRF assay. The arrangement: species or system Homo sapiens.
As for `N#CC[C@H]1CN(c2nc(OC[C@@]34CCCN3C[C@H](F)C4)nc3c(F)c(-c4cc(O)cc5ccccc45)ccc23)CCN1C(=O)/C(F)=C/c1ncccn1`, the IC50 was 11 nM.

`CN1CCC[C@H]1COc1nc(N2CCN(C(=O)/C(F)=C/c3nccs3)[C@@H](CC#N)C2)c2ccc(-c3cc(O)cc4ccccc34)c(F)c2n1`: the IC50 was 16 nM.

As for `C#Cc1cccc2cccc(-c3ccc4c(N(C)[C@@H]5CCN(C(=O)/C(F)=C/c6ccccn6)C5)nc(OC[C@@]56CCCN5C[C@H](F)C6)nc4c3F)c12`, the IC50 was 20 nM.

Turning to `C#Cc1c(F)ccc2cc(O)cc(-c3ccc4c(N5CCN(C(=O)/C(F)=C/c6ccccn6)CC5)nc(OC[C@@]56CCCN(C)[C@]5(C)CCC6)nc4c3F)c12`, the IC50 worked out at 6.4 nM.

Take `C#Cc1c(F)ccc2cc(O)cc(-c3ccc4c(N5CCN(C(=O)/C(F)=C/c6nccs6)CC5)nc(OC[C@@]56CCCN5C[C@H](F)C6)nc4c3F)c12`: the IC50 came out at 2 nM.

`CN1CCC[C@H]1COc1nc(N2CCN(C(=O)/C(F)=C/c3ncccn3)[C@@H](CC#N)C2)c2ccc(-c3cc(O)cc4ccccc34)c(F)c2n1`: the IC50 was 10 nM.
